Data on eleven molecules can be found in patent US20260274894A1, “CYCLIC POLYPEPTIDE COMPOUND AND USE THEREOF” (BIVISION PHARMACEUTICALS, INC., priority 2023, published 2026).

Numbered stars: 1 amine (or outer) side, 2 acyl side, 3 side chain; on linkers, the order of the positions; unused ones are H or OH. Bridge positions count the residues as written; N and C are the ends. Square brackets hold non-standard residues; d marks the D form. Side chains are listed from the residue outwards. Peptide text beside a SMILES is read from it. * marks the point of attachment. ξ: configuration not given here. TBMB(SCH2CH2NH-DOTA) = O=C(O)CN1CCN(CC(=O)O)CCN(CC(=O)NCCSCc2cc(C[*:1])cc(C[*:2])c2)CCN(CC(=O)O)CC1; NH(CH2)2O(CH2)2NHDOTA = O=C(O)CN1CCN(CC(=O)O)CCN(CC(=O)NCCOCCN*)CCN(CC(=O)O)CC1; DOTA = O=C(O)CN1CCN(CC(=O)O)CCN(CC(=O)*)CCN(CC(=O)O)CC1; Azetidine3carboxylic = O=C(C1CN([*:1])C1)[*:2]; γGlu = O=C(O)[C@H](CCC(=O)[*:2])N[*:1]; βAsp = O=C(O)[C@H](CC(=O)[*:2])N[*:1]; mXylylene = c1cc(C[*:1])cc(C[*:2])c1; ξγGlu = O=C(O)C(CCC(=O)[*:2])N[*:1]; Ethylenediamine = C(CN[*:2])N[*:1]; Cha = N[C@@H](CC1CCCCC1)C(=O)O; d(β3hD) = NC(CC(=O)O)CC(=O)O; Decanoyl = CCCCCCCCCC(=O)*; Octanoyl = CCCCCCCC(=O)*; Dab = NCC[C@H](N)C(=O)O; Dap = NC[C@H](N)C(=O)O; Hexanoyl = CCCCCC(=O)*; CO = O=C([*:1])[*:2]; ξP = O=C(O)C1CCCN1; Ava = NCCCCC(=O)O; GABA = NCCCC(=O)O; ξC = NC(CS)C(=O)O; NHBu = CCCCN* Where only a bound is given, the exact number is not on record here.

One test addresses T1, FAP protein (Homo sapiens, UniProt Q12884).
T1 construct: purchased Sinobiological
T1 sequence (Q12884 1-760): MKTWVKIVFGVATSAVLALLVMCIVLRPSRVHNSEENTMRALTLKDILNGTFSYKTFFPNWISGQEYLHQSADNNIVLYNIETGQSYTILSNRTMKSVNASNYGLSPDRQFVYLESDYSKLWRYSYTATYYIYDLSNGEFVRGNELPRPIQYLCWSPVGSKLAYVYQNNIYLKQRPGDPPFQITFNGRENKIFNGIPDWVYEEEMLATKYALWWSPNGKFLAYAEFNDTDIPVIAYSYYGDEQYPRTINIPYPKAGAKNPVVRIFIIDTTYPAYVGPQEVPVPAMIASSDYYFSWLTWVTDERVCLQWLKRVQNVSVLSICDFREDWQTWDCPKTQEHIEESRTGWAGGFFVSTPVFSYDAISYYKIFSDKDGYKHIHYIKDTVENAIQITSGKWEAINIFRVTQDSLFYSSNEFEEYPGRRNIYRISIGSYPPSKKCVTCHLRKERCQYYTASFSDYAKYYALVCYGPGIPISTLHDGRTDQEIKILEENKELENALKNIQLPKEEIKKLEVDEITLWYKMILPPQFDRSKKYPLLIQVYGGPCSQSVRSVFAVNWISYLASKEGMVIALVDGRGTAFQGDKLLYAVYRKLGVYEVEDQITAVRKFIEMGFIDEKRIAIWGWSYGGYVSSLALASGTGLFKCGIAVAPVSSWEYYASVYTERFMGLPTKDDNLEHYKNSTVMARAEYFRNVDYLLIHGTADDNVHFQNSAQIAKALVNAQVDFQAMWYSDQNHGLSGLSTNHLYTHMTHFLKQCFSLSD
In words: Biacore test of compound affinity to FAP protein. The following applies: Biacore 8K, SA chip, 15° C., 1:1 binding model. On the procedure:
The Biacore 8K (Cytiva) instrument was used to detect ligand binding of the FAP protein (Sinobiological). FAP protein was captured on the SA chip. […] The sensor surface was conditioned by injecting 1M NaCl three consecutive times in 50 mM NaOH. After each ligand injection, additional cleaning was performed using isopropanol in 1M NaCl and 50 mM NaOH (flow path 1 and 2, flow rate of 10 μL/min, injection time of 60 s). […] The analyte was run under the following conditions: analysis temperature of 15° C., analysis step=all set to LMW kinetics; cycle type=single cycle (contact time of 90 s, dissociation time of 1800 s, flow rate of 30 μL/min, flow channels 1 and 2); channel detection=2-1. Data was evaluated using the Biacore Insight Evaluation Software, and the data were fitted to a 1:1 binding model. The Biacore results are shown in Table 2 below: pKD=−Log KD, where KD is the binding affinity of the compound to the FAP protein as measured by Biacore.
For `CCCCCC(=O)N[C@H]1CSCc2cccc(c2)CSC[C@@H](C(=O)N[C@@H](CCC(=O)NCCNC(=O)CN2CCN(CC(=O)O)CCN(CC(=O)O)CCN(CC(=O)O)CC2)C(=O)O)NC(=O)[C@H](Cc2ccccc2)NC(=O)[C@H](CCC(N)=O)NC(=O)[C@H]([C@@H](C)O)NC(=O)[C@@H]2CCCN2C(=O)C2CN(C2)C1=O` (single isomer, unassigned) [^175Lu-JHDC23], the “pKD (FAP)” value is on record as “B (B: 7<pKD<8)”.

The same test, now with this note: Biacore 8K, SA chip, 15° C., 1:1 binding model; read-out: pKD (FAP) (converted).
For the molecule `CCCCNC(=O)N[C@H]1CSCc2cccc(c2)CSCC(C(=O)N[C@@H](CCNC(=O)CCCNC(=O)CN2CCN(CC(=O)O)CCN(CC(=O)O)CCN(CC(=O)O)CC2)C(=O)O)NC(=O)[C@H](CC2CCCCC2)NC(=O)[C@H](CCC(N)=O)NC(=O)[C@H]([C@@H](C)O)NC(=O)[C@@H]2CCCN2C(=O)C2CN(C2)C1=O` (stereo partly drawn) [JHDC55, nBu-urea-[Cys(3MeBn)-hhy39-Pro-Thr-Gln-hhy34-Cys]-DABA-(ABA-DOTA)-OH] ({NHBu-CO}-C[Azetidine3carboxylic]PTQ[Cha][ξC][Dab]([GABA-DOTA])-OH; linker 1-7 via mXylylene), the Kd was below 10 nM.

Consider `CCCCCCCCCC(=O)N[C@H]1CSCc2cccc(c2)CSC[C@@H](C(=O)N[C@@H](CCC(=O)N[C@@H](CCCNC(=N)N)C(=O)NCC(=O)N[C@@H](CC(=O)NCCNC(=O)CN2CCN(CC(=O)O)CCN(CC(=O)O)CCN(CC(=O)O)CC2)C(=O)O)C(=O)O)NC(=O)[C@H](CC2CCCCC2)NC(=O)[C@H](CCC(N)=O)NC(=O)[C@H]([C@@H](C)O)NC(=O)[C@@H]2CCCN2C(=O)C2CN(C2)C1=O` [JHDC19, Dec[Cys(3MeBn)-hhy39-Pro-Thr-Gln-hhy34-Cys]-Glu-(Arg-Gly-Asp(EDA-DOTA))-OH] (Decanoyl-C[Azetidine3carboxylic]PTQ[Cha]C[γGlu]RG[βAsp]-{Ethylenediamine-DOTA}; linker 1-7 via mXylylene), for which the Kd was 10 to 100 nM.

As to `CCCCNC(=O)N[C@H]1CSCc2cccc(c2)CSCC(C(=O)N[C@H](CC(=O)O)CC(=O)NCCOCCNC(=O)CN2CCN(CC(=O)O)CCN(CC(=O)O)CCN(CC(=O)O)CC2)NC(=O)[C@H](Cc2ccccc2)NC(=O)[C@H](CCC(N)=O)NC(=O)[C@H]([C@@H](C)O)NC(=O)C2CCCN2C(=O)C2CN(C2)C1=O` (stereo partly drawn) [JHDC34, nBu-urea-[Cys(3MeBn)-hhy39-Pro-Thr-Gln-Phe-Cys]-p-Glu-(DAPEG2-DOTA)-OH] ({NHBu-CO}-C[Azetidine3carboxylic][ξP]TQF[ξC][d(β3hD)]-{NH(CH2)2O(CH2)2NHDOTA}; linker 1-7 via mXylylene), the Kd is 10 to 100 nM.

As to `CCCCNC(=O)N[C@H]1CSSCC(C(=O)N[C@@H](CCC(=O)NCCOCCNC(=O)CN2CCN(CC(=O)O)CCN(CC(=O)O)CCN(CC(=O)O)CC2)C(=O)O)NC(=O)[C@H](Cc2ccccc2)NC(=O)[C@H](CCC(N)=O)NC(=O)[C@H]([C@@H](C)O)NC(=O)C2CCCN2C(=O)C2CN(C2)C1=O` (stereo partly drawn) [JHDC31, nBu-urea-[Cys(SS)-hhy39-Pro-Thr-Gln-Phe-Cys]-Glu-(DAPEG2-DOTA)-OH] ({NHBu-CO}-C[Azetidine3carboxylic][ξP]TQF[ξC]E(NH(CH2)2O(CH2)2NHDOTA)-OH; disulfide 1-7), the Kd is 10 to 100 nM.

Regarding `CCCCCC(=O)N[C@H]1CSCc2cccc(c2)CSCC(C(=O)N[C@H](CC(=O)O)CC(=O)NCCOCCNC(=O)CN2CCN(CC(=O)O)CCN(CC(=O)O)CCN(CC(=O)O)CC2)NC(=O)[C@H](Cc2ccccc2)NC(=O)[C@H](CCC(N)=O)NC(=O)[C@H]([C@@H](C)O)NC(=O)C2CCCN2C(=O)C2CN(C2)C1=O` (stereo partly drawn) [JHDC36, Hex-[Cys(3MeBn)-hhy39-Pro-Thr-Gln-Phe-Cys]-β-Glu-(DAPEG2-DOTA)-OH] (Hexanoyl-C[Azetidine3carboxylic][ξP]TQF[ξC][d(β3hD)]-{NH(CH2)2O(CH2)2NHDOTA}; linker 1-7 via mXylylene), the Kd was 10 to 100 nM.

As for `CCCCCC(=O)N[C@H]1CSCc2cccc(c2)CSCC(C(=O)N[C@@H](CNC(=O)CCCCNC(=O)CN2CCN(CC(=O)O)CCN(CC(=O)O)CCN(CC(=O)O)CC2)C(=O)O)NC(=O)[C@H](Cc2ccccc2)NC(=O)[C@H](CCC(N)=O)NC(=O)[C@H]([C@@H](C)O)NC(=O)C2CCCN2C(=O)C2CN(C2)C1=O` (stereo partly drawn) [JHDC40, Hex-[Cys(3MeBn)-hhy39-Pro-Thr-Gln-Phe-Cys]-DAPA-(APTA-DOTA)-OH] (Hexanoyl-C[Azetidine3carboxylic][ξP]TQF[ξC][Dap]([Ava-DOTA])-OH; linker 1-7 via mXylylene), the Kd is 10 to 100 nM.

With `CCCCNC(=O)N[C@H]1CSCc2cccc(c2)CSCC(C(=O)N[C@H](CC(=O)O)CC(=O)NCCNC(=O)CN2CCN(CC(=O)O)CCN(CC(=O)O)CCN(CC(=O)O)CC2)NC(=O)[C@H](Cc2ccccc2)NC(=O)[C@H](CCC(N)=O)NC(=O)[C@H]([C@@H](C)O)NC(=O)C2CCCN2C(=O)C2CN(C2)C1=O` (stereo partly drawn) [JHDC35, nBu-urea-[Cys(3MeBn)-hhy39-Pro-Thr-Gln-Phe-Cys]-p-Glu-(EDA-DOTA)-OH] ({NHBu-CO}-C[Azetidine3carboxylic][ξP]TQF[ξC][d(β3hD)]-{Ethylenediamine-DOTA}; linker 1-7 via mXylylene), the Kd was 10 to 100 nM.

Consider `CCCCCCCC(=O)N[C@H]1CSCc2cc(CSCCNC(=O)CN3CCN(CC(=O)O)CCN(CC(=O)O)CCN(CC(=O)O)CC3)cc(c2)CSC[C@@H](C(=O)NC(CCC(=O)N[C@@H](CCCNC(=N)N)C(=O)NCC(=O)N[C@@H](CC(N)=O)C(=O)O)C(=O)O)NC(=O)[C@H](CC2CCCCC2)NC(=O)[C@H](CCC(N)=O)NC(=O)[C@H]([C@@H](C)O)NC(=O)C2CCCN2C(=O)C2CN(C2)C1=O` (stereo partly drawn) [JHDC21, Oct[Cys(tMeBn-DOTA-AET)-hhy39-Pro-Thr-Gln-hhy34-Cys]-Glu-(Arg-Gly-Asp(NH2))-OH] (Octanoyl-C[Azetidine3carboxylic][ξP]TQ[Cha]C[ξγGlu]RGN-OH; linker 1-7 via TBMB(SCH2CH2NH-DOTA)), for which the Kd was 10 to 100 nM.

`CCCCCC(=O)N[C@H]1CSCc2cccc(c2)CSCC(C(=O)N[C@@H](CCC(=O)NCCOCCNC(=O)CN2CCN(CC(=O)O)CCN(CC(=O)O)CCN(CC(=O)O)CC2)C(=O)O)NC(=O)[C@H](Cc2ccccc2)NC(=O)[C@H](CCC(N)=O)NC(=O)[C@H]([C@@H](C)O)NC(=O)C2CCCN2C(=O)C2CN(C2)C1=O` (stereo partly drawn) [JHDC06, Hex[Cys(3MeBn)-hhy39-Pro-Thr-Gln-Phe-Cys]-Glu-(DAPEG2-DOTA)-OH] (Hexanoyl-C[Azetidine3carboxylic][ξP]TQF[ξC]E(NH(CH2)2O(CH2)2NHDOTA)-OH; linker 1-7 via mXylylene): the Kd is below 10 nM.

On to `CCCCCC(=O)N[C@H]1CSCc2cccc(c2)CSCC(C(=O)N[C@@H](CCC(=O)NCCOCCNC(=O)CN2CCN(CC(=O)O)CCN(CC(=O)O)CCN(CC(=O)O)CC2)C(=O)O)NC(=O)[C@H](CC2CCCCC2)NC(=O)CNC(=O)[C@H](CCC(N)=O)NC(=O)[C@H]([C@@H](C)O)NC(=O)C2CCCN2C(=O)C2CN(C2)C1=O` (stereo partly drawn) [JHDC09, Hex[Cys(3MeBn)-hhy39-Pro-Thr-Gln-Gly-hhy34-Cys]-Glu-(DAPEG2-DOTA)-OH] (Hexanoyl-C[Azetidine3carboxylic][ξP]TQG[Cha][ξC]E(NH(CH2)2O(CH2)2NHDOTA)-OH; linker 1-8 via mXylylene), for which the Kd was 10 to 100 nM.
